The term logP denotes the decadic logarithm of the partition coefficient of the neutral form, usually between octanol and water. Read a low logP as a more hydrophilic compound.

The results in this text go back to ChEMBL document CHEMBL4196028, “Synthesis and biological evaluation of 20-epi-amino-20-deoxysalinomycin derivatives” (Eur J Med Chem, 2018).

The nature of the series: physchem. Conditions: n-octanol/water.

Take `CC[C@@H](C(=O)[C@@H](C)[C@@H](O)[C@H](C)[C@@H]1O[C@@H]([C@@H](CC)C(=O)O)CC[C@@H]1C)[C@H]1O[C@]2(C=C[C@@H](O)[C@]3(CC[C@@](C)([C@H]4CC[C@](O)(CC)[C@H](C)O4)O3)O2)[C@H](C)C[C@@H]1C` [SALINOMYCIN]: the logP was 2.21.
The value for `CC[C@@H](C(=O)[C@@H](C)[C@@H](O)[C@H](C)[C@@H]1O[C@@H]([C@@H](CC)C(=O)OCC[Si](C)(C)C)CC[C@@H]1C)[C@H]1O[C@]2(C=C[C@H](n3cc(COC(C(F)(F)F)(C(F)(F)F)C(F)(F)F)nn3)[C@]3(CC[C@@](C)([C@H]4CC[C@](O)(CC)[C@H](C)O4)O3)O2)[C@H](C)C[C@@H]1C` was 1.95; that for `CC[C@@H](C(=O)[C@@H](C)[C@@H](O)[C@H](C)[C@@H]1O[C@@H]([C@@H](CC)C(=O)O)CC[C@@H]1C)[C@H]1O[C@]2(C=C[C@H](NC(=O)OCc3ccccc3)[C@]3(CC[C@@](C)([C@H]4CC[C@](O)(CC)[C@H](C)O4)O3)O2)[C@H](C)C[C@@H]1C` was 1.77.
